The values that follow come from patent US20230293535A1, “ERBB/BTK INHIBITORS” (Dizal (Jiangsu) Pharmaceutical Co., Ltd., priority 2018, published 2023).

Holding throughout (format): cell-based
One experiment deals with DB cells. Briefly: BTK (wt) cell proliferation, DB (CellTiter-Glo, 72 h).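 Note: DB cells in 384-well plates given a dilution series of compound, viable cells read by ATP luminescence, growth expressed versus DMSO control after subtracting a time-zero plate reading.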 As to conditions: Homo sapiens, DB, read-out: Non-BCR activated DB GI50.
For experiment [1], the system named is Her2 exon 20 insertion YVMA transduced NIH-3T3 cell line. Briefly: Cell proliferation, Her2 YVMAins NIH-3T3 (CellTiter-Glo, 72 h).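 Note: viable cells quantified by ATP luminescence, growth over a day-zero baseline plate expressed as percent of DMSO control growth, compound dilution series in 10% FBS medium.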 As to conditions: Mus musculus, NIH3T3, 72 h.
The next experiment deals with Ri-1 cells. Put plainly: BTK (wt) cell proliferation, Ri-1 (CellTiter-Glo, 72 h).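 Note: viable cells quantified as cellular ATP luminescence, proliferation normalized to a time-zero plate and the DMSO control, compounds tested across a dilution series.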 To be noted: Ri-1, 72 h, read-out: BTK WT Ri-1 GI50.
The test system of a further experiment is TMD-8 cells. Put plainly: BTK (wt) cell proliferation, TMD-8 (CellTiter-Glo, 72 h).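 Note: viable cells quantified by ATP-based luminescence, proliferation expressed as percent of DMSO control after subtracting a time-zero baseline plate read at dosing.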 As to conditions: Homo sapiens, TMD8, 72 h, read-out: BTK WT TMD-8 GI50.
In another experiment the test system is OCI-LY-10 cells. Briefly: BTK (wt) cell proliferation, OCI-LY-10 (CellTiter-Glo, 72 h).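 Note: viable cells quantified via cellular ATP luminescence, proliferation given as percent of DMSO control after subtracting a duplicate plate read at time of dosing.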 As to conditions: Homo sapiens, OCI-Ly10, 72 h, read-out: BTK WT OCI-LY-10 GI50.
The subject of a further experiment is WT EGFR cell line A-431. Briefly: Cell proliferation, WT EGFR A431 (CellTiter-Glo, 72 h).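 Note: proliferation from a luminescent ATP viability signal, expressed as 100 × (treated minus time-zero plate) over (DMSO control minus time-zero plate), cells grown with 10% FBS.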 To be noted: Homo sapiens, A-431, 72 h.
Experiment [2] deals with T1, human Her2 exon 20 insertion mutation YVMA (Homo sapiens, UniProt P04626, INS775YVMA).
T1 construct: expressed in transfected cells; host or cells: NIH-3T3, lentiviral transduction, puromycin selection
Briefly: Her2 Exon 20 YVMA insertion cellular phosphorylation inhibition (MSD p-Her2 Y1248/total Her2).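 Note: lentivirally transduced NIH-3T3 cells in 1% FBS medium, electrochemiluminescent MSD read-out, graded compound concentrations at 37 °C.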 As to conditions: Her2 YVMAins cells, 4 h compound.
Description: The resulting cell line expressed phosphorylated Her2 protein and its proliferation depended on the mutation gene, which could be used for in vitro PD and anti-proliferation assays.
One day before the test, WT or mutant cells were seeded in 96 well plates at appropriate concentrations with corresponding growth media supplemented with 1% FBS, and incubated overnight. The next day, tested compounds at a series of concentrations were added into each individual well of the plates, and the plates were incubated for 4 h at 37° C. with 5% CO2.
The EGFR (Y1068) phosphorylation level (activity) of cells in each well were then measured with MSD kit named “MULTI-SPOT®96 4-Spot HB Prototype EGFR Triplex [sequence]: pEGFR(Tyr1068),pEGFR(Tyr1173), Total EGFR” according to the manufacturer’s instruction (MESO SCALE DISCOVERY, Cat# N45ZB-1). The assay is an electrochemiluminescent method for determining both phosphorylated and total EGFR of cells with an MSD SECTOR® Imager and the ratio of p-EGFR/total EGFR can be generated by the machine. The Her2 (Y1248) phosphorylation level (activity) of cells in each well were measured with MSD Kit named “Phospho-ErbB2 (Tyr1248) Assay Whole Cell Lysate Kit” according to the manufacturer’s instruction (MESO SCALE DISCOVERY, Cat# K151CLD-3). The assay is an electrochemiluminescent method (MESO SCALE DISCOVERY) for determining both phosphorylated and total Her2 of cells with an MSD SECTOR® Imager and then the ratio of p-Her2/total Her2 can be generated by the machine.

A further experiment deals with Ba/F3 EGFR ASV ins cells. Briefly: Cell proliferation, Ba/F3 EGFR ASV ins (CellTiter-Glo, 72 h).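 Note: IL3-independent Ba/F3 cells transduced with EGFR V769_D770insASV, cellular ATP luminescence after compound exposure, growth relative to DMSO control with the day-0 baseline reading subtracted.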 To be noted: Ba/F3 EGFR, 72 h.
For experiment [3], the system named is NCI-H1975 EGFR L858R/T790M cells. Put plainly: Cell proliferation, NCI-H1975 EGFR L858R/T790M (CellTiter-Glo, 72 h).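 Note: viable cells quantified by luciferase-based ATP luminescence, proliferation expressed relative to DMSO-treated wells (100%) after subtracting a parallel plate read at the time of dosing.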 To be noted: Homo sapiens, NCI-H1975, 72 h.
In the next experiment the test system is Ba/F3 EGFR NPH ins cells. Put plainly: Cell proliferation, Ba/F3 EGFR NPH ins (CellTiter-Glo, 72 h).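 Note: IL3-independent cells carrying constitutively phosphorylated EGFR, compound dilution series, viable cells quantified by ATP luminescence, growth relative to DMSO wells after subtracting pre-dosing (day 0) baseline.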 As to conditions: Ba/F3 EGFR, 72 h.
Where [4] appears, read: read-out: Her2 Exon 20 YVMA insertion GI50 (nM).
Setting [5] is: A431, 72 h proliferation, read-out: EGFR WT A431 GI50.
Where [6] appears, read: Her2 YVMAins cells, 72 h proliferation, read-out: Her2 Exon 20 YVMA insertion GI50.
The mark [7] stands for this setting: Ba/F3 EGFR ASV ins, 72 h proliferation, read-out: EGFR Exon20 ASV insertion GI50.
[8] abbreviates: Ri-1 cells, 72 h, CellTiter-Glo.
[9] abbreviates: NCI-H1975, 72 h proliferation, read-out: EGFR L858R and T790M mutation GI50.
[10] abbreviates: TMD-8 cells, 72 h, CellTiter-Glo.
The mark [11] stands for this setting: Ba/F3 EGFR NPH ins, 72 h proliferation, read-out: EGFR Exon20 NPH insertion GI50.
[12] abbreviates: OCI-LY-10 cells, 72 h, CellTiter-Glo.
[13] abbreviates: read-out: EGFR WT A431 GI50 (nM).
Where [14] appears, read: read-out: EGFR Exon20 ASV insertion GI50 (nM).
[15] abbreviates: read-out: EGFR L858R and T790M mutation GI50 (nM).
Where [16] appears, read: read-out: EGFR Exon20 NPH insertion GI50 (nM).

Structures are written as SMILES. Like-named read-outs stand apart in the source and are kept apart here.

T1 sequence (P04626 with tags, fused parts or gaps INS775YVMA): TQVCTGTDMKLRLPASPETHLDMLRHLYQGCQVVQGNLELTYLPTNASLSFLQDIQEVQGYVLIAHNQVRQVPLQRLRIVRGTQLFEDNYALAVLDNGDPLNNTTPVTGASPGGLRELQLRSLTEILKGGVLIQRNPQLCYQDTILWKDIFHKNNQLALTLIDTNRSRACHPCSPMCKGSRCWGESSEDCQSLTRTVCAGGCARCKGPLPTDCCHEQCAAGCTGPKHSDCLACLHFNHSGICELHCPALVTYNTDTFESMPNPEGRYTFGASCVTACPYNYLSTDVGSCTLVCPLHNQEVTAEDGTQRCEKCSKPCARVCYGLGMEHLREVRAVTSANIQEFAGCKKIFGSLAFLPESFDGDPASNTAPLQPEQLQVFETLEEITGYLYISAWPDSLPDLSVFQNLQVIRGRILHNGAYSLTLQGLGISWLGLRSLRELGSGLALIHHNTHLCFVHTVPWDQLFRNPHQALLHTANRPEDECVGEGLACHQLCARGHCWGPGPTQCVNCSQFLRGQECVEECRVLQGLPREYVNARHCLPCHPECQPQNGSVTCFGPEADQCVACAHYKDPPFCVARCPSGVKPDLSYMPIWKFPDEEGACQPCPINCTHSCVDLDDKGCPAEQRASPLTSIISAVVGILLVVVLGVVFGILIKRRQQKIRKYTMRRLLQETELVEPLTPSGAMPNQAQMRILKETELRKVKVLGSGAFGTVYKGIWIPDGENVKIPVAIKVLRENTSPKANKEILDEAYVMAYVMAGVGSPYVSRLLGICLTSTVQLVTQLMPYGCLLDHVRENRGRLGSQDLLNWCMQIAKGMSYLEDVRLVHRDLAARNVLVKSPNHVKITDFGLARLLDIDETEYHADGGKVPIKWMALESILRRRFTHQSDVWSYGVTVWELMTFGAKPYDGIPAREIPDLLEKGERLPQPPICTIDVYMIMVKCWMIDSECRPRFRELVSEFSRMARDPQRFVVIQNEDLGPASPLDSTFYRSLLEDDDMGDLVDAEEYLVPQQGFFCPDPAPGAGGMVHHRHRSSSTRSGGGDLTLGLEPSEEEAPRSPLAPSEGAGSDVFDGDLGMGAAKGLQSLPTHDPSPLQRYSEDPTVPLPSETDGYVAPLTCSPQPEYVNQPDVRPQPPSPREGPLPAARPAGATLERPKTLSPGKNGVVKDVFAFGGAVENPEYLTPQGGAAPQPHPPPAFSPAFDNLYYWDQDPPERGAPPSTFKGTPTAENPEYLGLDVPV

With `CN(C)C/C=C/C(=O)Nc1cc2c(Nc3ccc(F)c(Cl)c3)ncnc2cc1O[C@H]1CCOC1` [Afatinib, reference compound], the GI50 turned out to be 657 nM in the experiment on DB cells; 17.8 nM in experiment [1] (setting [4]); 1030 nM in the experiment with Ri-1 cells; 1160 nM with TMD-8 cells; 1040 nM in the experiment on OCI-LY-10 cells.
With `C=CC(=O)N1CCC(Oc2cc3c(Nc4ccc(Cl)c(Cl)c4F)ncnc3cc2OC)CC1` [Poziotinib, reference compound], the GI50 in the experiment with DB cells (DB cells, CellTiter-Glo) is > 3000 nM; in the experiment on WT EGFR cell line A-431 (setting [5]) it was 0.5 nM; in experiment [1] (setting [6]), 4.7 nM; with Ba/F3 EGFR ASV ins cells (setting [7]), 4.1 nM; with Ri-1 cells (setting [8]), 1230 nM; in experiment [3] (setting [9]) it was 19.4 nM. Also, the GI50 with TMD-8 cells (setting [10]) came out at 2410 nM; in the experiment on Ba/F3 EGFR NPH ins cells (setting [11]), 7.2 nM; in the experiment on OCI-LY-10 cells (setting [12]) it was 1000 nM. In experiment [2], this compound displayed an IC50 of 0.8 nM.
Turning to `CCOc1cc2ncc(C#N)c(Nc3ccc(OCc4ccccn4)c(Cl)c3)c2cc1NC(=O)/C=C/CN(C)C` [Neratinib, reference compound], the GI50 amounted to 15.9 nM in the experiment on WT EGFR cell line A-431 (setting [13]); 5.2 nM in [1] (setting [4]); 88 nM in the experiment on Ba/F3 EGFR ASV ins cells (setting [14]); 110 nM in experiment [3] (setting [15]); 700 nM with Ba/F3 EGFR NPH ins cells (setting [16]).
Consider `C=CC(=O)Nc1cc(Nc2ncc(Cl)c(Nc3cc(Cl)c(F)cc3C(C)(C)O)n2)c(OC)cc1N(C)CCN(C)C` [Compound 78, N-(5-(5-chloro-4-(5-chloro-4-fluoro-2-(2-hydroxypropan-2-yl)phenylamino)pyrimidin-2-ylamino)-2-((2-(dimethylamino)ethyl)(methyl)amino)-4-methoxyphenyl)acrylamide], for which the GI50 in the experiment with DB cells (DB cells, CellTiter-Glo) was > 3000 nM; with WT EGFR cell line A-431 (setting [5]) it was 21.5 nM; in [1] (setting [6]) it was 49.2 nM; with Ba/F3 EGFR ASV ins cells (setting [7]) it was 35.7 nM; in the experiment on Ri-1 cells (setting [8]) it was 77.8 nM; in experiment [3] (setting [9]), 1.4 nM. In addition, the results for the GI50 in the experiment with TMD-8 cells (setting [10]), with Ba/F3 EGFR NPH ins cells (setting [11]) and in the experiment with OCI-LY-10 cells (setting [12]) were 10.3 nM, 60 nM and 6.2 nM, respectively. The compound further registered an IC50 in experiment [2] of 19.7 nM.
As for `C=CC(=O)Nc1cc(Nc2nccc(-c3cn(C)c4ccccc34)n2)c(OC)cc1N(C)CCN(C)C` [AZD9291, osimertinib, reference compound], the GI50 was determined as 1020 nM in the experiment on DB cells; 43.7 nM with WT EGFR cell line A-431 (setting [13]); 294 nM in experiment [1] (setting [4]); 207 nM in the experiment on Ba/F3 EGFR ASV ins cells (setting [14]); 2050 nM in the experiment with Ri-1 cells; 14.5 nM in experiment [3] (setting [15]). Besides, the GI50 with TMD-8 cells was 1090 nM; in the experiment on Ba/F3 EGFR NPH ins cells (setting [16]), 177 nM; in the experiment on OCI-LY-10 cells, 1040 nM.
For the compound `Cc1cc(C(=O)Nc2nc3cccc(Cl)c3n2[C@@H]2CCCCN(C(=O)/C=C/CN(C)C)C2)ccn1` [EGF816, reference compound], the GI50 was > 3000 nM in the experiment on DB cells (DB cells, CellTiter-Glo); 265 nM in the experiment with WT EGFR cell line A-431 (setting [5]); 242 nM in experiment [1] (setting [6]); 502 nM with Ba/F3 EGFR ASV ins cells (setting [7]); 897 nM with Ri-1 cells (setting [8]); 42.5 nM in experiment [3] (setting [9]). For the same compound, the values for the GI50 in the experiment with TMD-8 cells (setting [10]), with Ba/F3 EGFR NPH ins cells (setting [11]) and in the experiment with OCI-LY-10 cells (setting [12]) were 166 nM, 491 nM and 235 nM, respectively. Also, in experiment [2], the IC50 turned out to be 116 nM.
